Results taken from patent US6416780B1 (Galen (Chemicals) Limited, priority 1997, dated 2002).
Like-named read-outs stand apart in the source and are kept apart here.

Legend:
[1] = Example 2 rings; 1.0% BKC versus 0.9% saline
[2] = for sink conditions in 0.9% saline: rings of Examples 1 and 2, 250 ml, 37° C.; for In vitro release into 0.9% saline (as total testosterone): core loading 10% w/w testosterone
Protocol: The rings were tested in vitro at a constant temperature of 37° C. for their release characteristics in a sufficient volume (250 ml) of each of the following media: 0.9% (w/v) saline and 1.0% (w/v) aqueous benzalkonium chloride (BKC).
Thus, each ring was suspended by a thread in an individual enclosed flask containing the dissolution medium, maintained at a constant temperature of 37° C. The contents of the flask were gently agitated in order to prevent the occurrence of a hydrostatic layer on the surface of the ring. After 24 hours (±30 minutes), the ring was removed and suspended in a flask of fresh dissolution medium of identical volume.

[3] = In vitro release from Example 5 testosterone-17-propionate ring into 0.9% saline over 26 days; format: physicochemical; conditions: for In Vitro Release of Testosterone-17-propionate, Release Rate: Example 5 ring core length 90 mm
[4] = In vitro release from Example 3 rings into 0.9% saline over 30 days; format: physicochemical; conditions: 30 day monitoring period
[5] = human female, cited from earlier work
[6] = In vitro release from Example 6 pessary bullets into 0.9% saline; conditions: following an initial burst phase

CC(=O)O[C@H]1CC[C@H]2[C@@H]3CCC4=CC(=O)CC[C@]4(C)[C@H]3CC[C@]12C [testosterone-17-acetate]
in vitro release rates into BKC compared with saline [1]: considerably higher than those into saline | sink conditions in 0.9% saline [2]: ‘non-sink conditions’ exist in saline

CCC(=O)O[C@H]1CC[C@H]2[C@@H]3CCC4=CC(=O)CC[C@]4(C)[C@H]3CC[C@]12C [testosterone-17-propionate]
In Vitro Release of Testosterone-17-propionate, Release Rate ([3]; 0.9% saline, day 2): 171 µg/day | In Vitro Release of Testosterone-17-propionate, Release Rate ([3]; 0.9% saline, day 3): 328 µg/day | In Vitro Release of Testosterone-17-propionate, Release Rate ([3]; 0.9% saline, day 4): 337 µg/day | In Vitro Release of Testosterone-17-propionate, Release Rate ([3]; 0.9% saline, day 5): 465 µg/day | In Vitro Release of Testosterone-17-propionate, Release Rate ([3]; 0.9% saline, day 7): 457 µg/day | In Vitro Release of Testosterone-17-propionate, Release Rate ([3]; 0.9% saline, day 13): 527 µg/day | In Vitro Release of Testosterone-17-propionate, Release Rate ([3]; 0.9% saline, day 14): 587 µg/day | In Vitro Release of Testosterone-17-propionate, Release Rate ([3]; 0.9% saline, day 19): 585 µg/day | In Vitro Release of Testosterone-17-propionate, Release Rate ([3]; 0.9% saline, day 20): 663 µg/day | In Vitro Release of Testosterone-17-propionate, Release Rate ([3]; 0.9% saline, day 26): 637 µg/day | lag phase of in vitro release ([3]; Example 5 ring, freshly made, 0.9% saline): 13 days | in vitro release pattern ([3]; Example 5 ring, 0.9% saline, 13 day monitoring after the lag phase): substantially zero order pattern | amounts released compared with testosterone ([3]; intravaginal rings, high dose applications): amounts released are greater

C[C@]12CC[C@H]3[C@@H](CCC4=CC(=O)CC[C@@]43C)[C@@H]1CC[C@@H]2O [testosterone]
in vitro release pattern [4]: substantially zero order pattern | In vitro release into 0.9% saline (as total testosterone) ([2]; ring core length 30 mm, day 2): 270 µg/day | In vitro release into 0.9% saline (as total testosterone) ([2]; ring core length 30 mm, day 3): 232 µg/day | In vitro release into 0.9% saline (as total testosterone) ([2]; ring core length 30 mm, day 5): 237 µg/day | In vitro release into 0.9% saline (as total testosterone) ([2]; ring core length 30 mm, day 8): 228 µg/day | In vitro release into 0.9% saline (as total testosterone) ([2]; ring core length 30 mm, day 9): 229 µg/day | In vitro release into 0.9% saline (as total testosterone) ([2]; ring core length 30 mm, day 10): 226 µg/day | In vitro release into 0.9% saline (as total testosterone) ([2]; ring core length 30 mm, day 13): 238 µg/day | In vitro release into 0.9% saline (as total testosterone) ([2]; ring core length 30 mm, day 15): 227 µg/day | In vitro release into 0.9% saline (as total testosterone) ([2]; ring core length 30 mm, day 16): 216 µg/day | In vitro release into 0.9% saline (as total testosterone) ([2]; ring core length 30 mm, day 17): 224 µg/day | In vitro release into 0.9% saline (as total testosterone) ([2]; ring core length 60 mm, day 2): 471 µg/day | In vitro release into 0.9% saline (as total testosterone) ([2]; ring core length 60 mm, day 3): 401 µg/day | In vitro release into 0.9% saline (as total testosterone) ([2]; ring core length 60 mm, day 5): 419 µg/day | In vitro release into 0.9% saline (as total testosterone) ([2]; ring core length 60 mm, day 8): 400 µg/day | In vitro release into 0.9% saline (as total testosterone) ([2]; ring core length 60 mm, day 9): 407 µg/day | In vitro release into 0.9% saline (as total testosterone) ([2]; ring core length 60 mm, day 10): 406 µg/day | In vitro release into 0.9% saline (as total testosterone) ([2]; ring core length 60 mm, day 13): 430 µg/day | In vitro release into 0.9% saline (as total testosterone) ([2]; ring core length 60 mm, day 15): 408 µg/day | In vitro release into 0.9% saline (as total testosterone) ([2]; ring core length 60 mm, day 16): 392 µg/day | In vitro release into 0.9% saline (as total testosterone) ([2]; ring core length 60 mm, day 17): 388 µg/day | In vitro release into 0.9% saline (as total testosterone) ([2]; ring core length 90 mm, day 2): 696 µg/day | In vitro release into 0.9% saline (as total testosterone) ([2]; ring core length 90 mm, day 3): 572 µg/day | In vitro release into 0.9% saline (as total testosterone) ([2]; ring core length 90 mm, day 5): 588 µg/day | In vitro release into 0.9% saline (as total testosterone) ([2]; ring core length 90 mm, day 8): 592 µg/day | In vitro release into 0.9% saline (as total testosterone) ([2]; ring core length 90 mm, day 10): 581 µg/day | In vitro release into 0.9% saline (as total testosterone) ([2]; ring core length 90 mm, day 13): 623 µg/day | In vitro release into 0.9% saline (as total testosterone) ([2]; ring core length 90 mm, day 15): 595 µg/day | In vitro release into 0.9% saline (as total testosterone) ([2]; ring core length 90 mm, day 16): 584 µg/day | In vitro release into 0.9% saline (as total testosterone) ([2]; ring core length 90 mm, day 17): 612 µg/day | sink conditions in 0.9% saline [2]: ‘Sink conditions’ were evident | testosterone delivered per day ([5]; matrix (non-rate controlled) transdermal system, per day): about 1000 μg | mean circulating plasma testosterone levels ([5]; matrix transdermal system delivering about 1000 μg per day): 4 to 6 nM | in vitro release pattern [6]: substantially zero order release
